For experiment [1], the target named is ligand binding domain of human FXR (Homo sapiens (Human), UniProt Q96RI1). The experiment can be described thus: FXR ligand binding assay (LanthaScreen TR-FRET, SRC2-2 peptide recruitment). As to conditions: for Emax: extent of activation relative to GW4064, read-out: % Efficacy. (In general: TR-FRET usually uses a lanthanide donor and a delayed reading to cut background.)

In experiment [2] the target is human Farnesoid X receptor ligand-binding domain/Gal4 DNA binding domain chimera (Homo sapiens (Human), UniProt Q96RI1). Put plainly: Cell-based assay of FXR activation (FXR-UAS-bla HEK 293T beta-lactamase reporter). The following applies: cellular FXR beta-lactamase reporter assay; for Emax: HEK-293T, extent of activation relative to GW4064, read-out: % Efficacy; for EC50: FXR-UAS-bla HEK 293T cells, 16 h, pEC50 = -log EC50. The method, boiled down: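 Readout is cleavage of the CCF4 FRET substrate (409 nm excitation, blue 447 nm signal) by beta-lactamase, expressed under UAS control after a Gal4–human FXR LBD chimera is activated in HEK 293T cells. Compounds were added as 3-fold dilutions for 16 h at 37 °C in 2% charcoal-stripped FBS medium. Curves were fit to a 3-parameter logistic equation to give pEC50, with % activation relative to GW4064.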
human Farnesoid X receptor ligand-binding domain/Gal4 DNA binding domain chimera, sequence (Q96RI1 262-486, change not shown): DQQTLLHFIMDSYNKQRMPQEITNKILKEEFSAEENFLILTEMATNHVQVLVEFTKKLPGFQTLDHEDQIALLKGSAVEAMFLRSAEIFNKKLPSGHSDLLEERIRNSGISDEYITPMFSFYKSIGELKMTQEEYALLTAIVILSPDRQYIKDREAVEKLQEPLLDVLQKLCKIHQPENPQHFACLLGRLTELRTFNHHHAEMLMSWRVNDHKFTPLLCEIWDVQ
human Farnesoid X receptor ligand-binding domain/Gal4 DNA binding domain chimera, sequence (P04386 1-147 partner): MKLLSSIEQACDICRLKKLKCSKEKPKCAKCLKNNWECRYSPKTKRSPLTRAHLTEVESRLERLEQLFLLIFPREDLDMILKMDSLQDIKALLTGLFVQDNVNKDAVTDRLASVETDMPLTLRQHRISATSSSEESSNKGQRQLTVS

Setting [3] is: -log EC50, concentration required to produce 50% activation.

ligand binding domain of human FXR, sequence (Q96RI1 262-486): as the sequence (Q96RI1 262-486, change not shown) above

The term pEC50 denotes −log10 of the EC50, conventionally taken in molar units. Read a low pEC50 as a large EC50. The compound `O=C(O[C@@H]1C[C@@H]2C[C@H]1CN2c1ccc(-c2nn[nH]n2)cc1F)c1c(-c2c(Cl)cccc2Cl)noc1C1CC1` [Compound I-51, (1S,4S,5R)-2-[2-fluoro-4-(2H-1,2,3,4-tetrazol-5-yl)phenyl]-2-azabicyclo[2.2.1]heptan-5-yl 5-cyclopropyl-3-(2,6-dichlorophenyl)-1,2-oxazole-4-carboxylate] showed a pEC50 in experiment [1] (setting [3]) of 6.7. Further, the Emax in experiment [1] came to 269%. Also, in experiment [2], the Emax was determined as 104% and the EC50 was 20 nM.
For `O=C(O)c1ccc(N2C[C@@H]3C[C@H]2C[C@H]3OCc2c(-c3c(Cl)cccc3Cl)noc2C2CC2)cc1` [Compound I-52, 4-[(1S,4S,5R)-5-[[5-cyclopropyl-3-(2,6-dichlorophenyl)-1,2-oxazol-4-yl]methoxy]-2-azabicyclo[2.2.1]heptan-2-yl]benzoic acid] the same measures were 8.8, 148%, 111% and 1 nM.
As to `O=C(O)c1ccc(N2C[C@@H]3C[C@H]2C[C@H]3OCc2c(-c3c(Cl)cccc3Cl)noc2C2CC2)c(F)c1` [Compound I-53, 4-[(1S,4S,5R)-5-[[5-cyclopropyl-3-(2,6-dichlorophenyl)-1,2-oxazol-4-yl]methoxy]-2-azabicyclo[2.2.1]heptan-2-yl]-3-fluorobenzoic acid], the negative-log EC50 (pEC50) in experiment [1] (setting [3]) amounted to 8.7. Further, the Emax came to 145% in experiment [1] and 113% in experiment [2]. In experiment [2], this compound showed an EC50 of 0.398 nM.
Consider `O=C(O)c1cc(F)c(N2C[C@@H]3C[C@H]2C[C@H]3OCc2c(-c3c(Cl)cccc3Cl)noc2C2CC2)c(F)c1` [Compound I-54, 4-[(1S,4S,5R)-5-{[5-cyclopropyl-3-(2,6-dichlorophenyl)-1,2-oxazol-4-yl]methoxy}-2-azabicyclo[2.2.1]heptan-2-yl]-3,5-difluorobenzoic Acid], for which the values for the EC50 in experiment [1] (setting [3]) and in experiment [2] were 1.58 nM and 0.316 nM, respectively. For the same compound, the Emax in experiment [1] was 158%; in experiment [2], 101%.
For the compound `N#Cc1cc(F)c(N2C[C@@H]3C[C@H]2C[C@H]3OCc2c(-c3c(Cl)cccc3Cl)noc2C2CC2)c(F)c1` [Compound I-54a, 4-[(1S,4S,5R)-5-[[5-cyclopropyl-3-(2,6-dichlorophenyl)-1,2-oxazol-4-yl]methoxy]-2-azabicyclo[2.2.1]heptan-2-yl]-3,5-difluorobenzonitrile], in experiment [1] (setting [3]), the pEC50 is listed as 7.0. The Emax in experiment [1] was determined as 162%. In addition, in experiment [2], the Emax came to 112% and the EC50 was 31.6 nM.
On to `O=C(O)c1ccc(N2C[C@@H]3C[C@H]2C[C@H]3OCc2c(-c3c(Cl)cccc3Cl)noc2C2CC2)nc1` [Compound I-55, 6-[(1S,4S,5R)-5-{[5-cyclopropyl-3-(2,6-dichlorophenyl)-1,2-oxazol-4-yl]methoxy}-2-azabicyclo[2.2.1]heptan-2-yl]pyridine-3-carboxylic Acid], for which, in experiment [1] (setting [3]), the pEC50 amounted to 7.9. In experiment [1], the Emax is 121%. In experiment [2], the Emax came to 104% and the EC50 is 3.16 nM.
For `O=C(O)c1ccc(N2C[C@@H]3C[C@H]2C[C@H]3OCc2c(-c3c(Cl)cccc3Cl)noc2C2(F)CC2)cc1` [Compound I-56, 4-[(1S,4S,5R)-5-{[3-(2,6-dichlorophenyl)-5-(1-fluorocyclopropyl)-1,2-oxazol-4-yl]methoxy}-2-azabicyclo[2.2.1]heptan-2-yl]benzoic Acid] the same measures were 8.5, 137%, 125% and 2 nM.
On the same counts, the results for `O=C(O)c1ccc(N2C[C@@H]3C[C@H]2C[C@H]3OCc2c(-c3c(Cl)cccc3Cl)noc2C2(F)CC2)c(F)c1` [Compound I-57, 4-[(1S,4S,5R)-5-{[3-(2,6-dichlorophenyl)-5-(1-fluorocyclopropyl)-1,2-oxazol-4-yl]methoxy}-2-azabicyclo[2.2.1]heptan-2-yl]-3-fluorobenzoic Acid] are 7.9, 146%, 109% and 1 nM.
On the same counts, the results for `CS(=O)(=O)NC(=O)c1ccc(N2C[C@@H]3C[C@H]2C[C@H]3OCc2c(-c3c(Cl)cccc3Cl)noc2C2CC2)cc1` [Compound I-58, 4-[(1S,4S,5R)-5-{[5-cyclopropyl-3-(2,6-dichlorophenyl)-1,2-oxazol-4-yl]methoxy}-2-azabicyclo[2.2.1]heptan-2-yl]-N-methanesulfonylbenzamide] are 8.4, 153%, 104% and 0.501 nM.
In experiment [1] (setting [3]), `CCCS(=O)(=O)NC(=O)c1ccc(N2C[C@@H]3C[C@H]2C[C@H]3OCc2c(-c3c(Cl)cccc3Cl)noc2C2CC2)cc1` [Compound I-59, 4-[(1S,4S,5R)-5-{[5-cyclopropyl-3-(2,6-dichlorophenyl)-1,2-oxazol-4-yl]methoxy}-2-azabicyclo[2.2.1]heptan-2-yl]-N-(propane-1-sulfonyl)benzamide] gave a pEC50 of 8.2. In addition, the Emax in experiment [1] turned out to be 176%. For the same compound, in experiment [2], the Emax was 103% and the EC50 was 0.1 nM.
On the same counts, the results for `O=C(NS(=O)(=O)C1CC1)c1ccc(N2C[C@@H]3C[C@H]2C[C@H]3OCc2c(-c3c(Cl)cccc3Cl)noc2C2CC2)cc1` [Compound I-60, N-(cyclopropanesulfonyl)-4-[(1S,4S,5R)-5-[[5-cyclopropyl-3-(2,6-dichlorophenyl)-1,2-oxazol-4-yl]methoxy]-2-azabicyclo[2.2.1]heptan-2-yl]benzamide] are 8.2, 170%, 105% and 0.2 nM.
On the same counts, the results for `CCCS(=O)(=O)NC(=O)c1ccc(N2C[C@@H]3C[C@H]2C[C@H]3OCc2c(-c3c(Cl)cccc3Cl)noc2C2CC2)c(F)c1` [Compound I-61, 4-[(1S,4S,5R)-5-{[5-cyclopropyl-3-(2,6-dichlorophenyl)-1,2-oxazol-4-yl]methoxy}-2-azabicyclo[2.2.1]heptan-2-yl]-3-fluoro-N-(propane-1-sulfonyl)benzamide] are 8.7, 174%, 106% and 0.0631 nM.
In experiment [1] (setting [3]), `O=C(NS(=O)(=O)C1CC1)c1ccc(N2C[C@@H]3C[C@H]2C[C@H]3OCc2c(-c3c(Cl)cccc3Cl)noc2C2CC2)c(F)c1` [Compound I-62, N-(cyclopropanesulfonyl)-4-[(1S,4S,5R)-5-{[5-cyclopropyl-3-(2,6-dichlorophenyl)-1,2-oxazol-4-yl]methoxy}-2-azabicyclo[2.2.1]heptan-2-yl]-3-fluorobenzamide] displayed a pEC50 of 7.9. Moreover, in experiment [1], the Emax worked out at 188%. Also, in experiment [2], the Emax worked out at 112% and the EC50 is 0.158 nM.
`O=C(O)c1cc(F)c2nc(N3C[C@H]4C[C@@H]3[C@H](OC(=O)c3c(-c5c(Cl)cccc5Cl)noc3C3CC3)C4)sc2c1` [Compound I-63, 2-[(1R,4S,6R)-6-[5-cyclopropyl-3-(2,6-dichlorophenyl)-1,2-oxazole-4-carbonyloxy]-2-azabicyclo[2.2.1]heptan-2-yl]-4-fluoro-1,3-benzothiazole-6-carboxylic Acid]: the pEC50 in experiment [1] (setting [3]) is 8.7. Also, the Emax in experiment [1] was determined as 13%. For the same compound, the EC50 in experiment [2] was below 31600 nM.

The values above are taken from US10793568B2, “Hormone receptor modulators for treating metabolic conditions and disorders” (ARDELYX, INC., priority 2016, dated 2020).
